Reference: ChEMBL document CHEMBL1806455, “Synthesis, activity and pharmacokinetics of novel antibacterial 15-membered ring macrolones” (Eur J Med Chem, 2011)
Values after ≈ are worked out from the molar mass of the structure shown.

Assays:
Type in all cases: functional
[1] = tested on: Staphylococcus aureus; assay: Antibacterial activity against erythromycin-sensitive Staphylococcus aureus ATCC 13709 by broth microdilution method
[2] = tested on: Streptococcus pneumoniae; assay: Antibacterial activity against erythromycin-sensitive Streptococcus pneumoniae SP030 by broth microdilution method
[3] = tested on: Streptococcus pyogenes; assay: Antibacterial activity against erythromycin-sensitive Streptococcus pyogenes 3565 by broth microdilution method
[4] = tested on: Staphylococcus aureus; assay: Antibacterial activity against efflux-mediated macrolide-resistant Staphylococcus aureus PK1 by broth microdilution method
[5] = tested on: Streptococcus pneumoniae; assay: Antibacterial activity against efflux-mediated macrolide-resistant Streptococcus pneumoniae Ci137 by broth microdilution method
[6] = tested on: Streptococcus pyogenes; assay: Antibacterial activity against efflux-mediated macrolide-resistance Streptococcus pyogenes 2 Finland by broth microdilution method
[7] = tested on: Staphylococcus aureus; assay: Antibacterial activity against inducible macrolide-lincosamide-streptogramin B resistant Staphylococcus aureus 90256 by broth microdilution method
[8] = tested on: Streptococcus pneumoniae; assay: Antibacterial activity against inducible macrolide-resistant, constitutive lincosamide, streptogramin-resistant Streptococcus pneumoniae 134 GR M by broth microdilution method
[9] = tested on: Streptococcus pyogenes; assay: Antibacterial activity against inducible macrolide-lincosamide-streptogramin B resistant Streptococcus pyogenes Finland 11 by broth microdilution method
[10] = tested on: Staphylococcus aureus; assay: Antibacterial activity against constitutive macrolide, lincosamide, streptogramin-resistant Staphylococcus aureus PK2 by broth microdilution method
[11] = tested on: Streptococcus pneumoniae; assay: Antibacterial activity against constitutive macrolide, lincosamide, streptogramin-resistant Streptococcus pneumoniae 58 spain by broth microdilution method
[12] = tested on: Streptococcus pyogenes; assay: Antibacterial activity against macrolide, lincosamide, streptogramin-resistant Streptococcus pyogenes 166 GR-Micro by broth microdilution method
[13] = tested on: Haemophilus influenzae; assay: Antibacterial activity against Haemophilus influenzae ATCC 49247 by broth microdilution method
[14] = tested on: Moraxella catarrhalis; assay: Antibacterial activity against Moraxella catarrhalis ATCC 23246 by broth microdilution method

SMILES | MIC [1] [mg/L] | MIC [2] [mg/L] | MIC [3] [mg/L] | MIC [4] [mg/L] | MIC [5] [mg/L] | MIC [6] [mg/L] | MIC [7] [mg/L] | MIC [8] [mg/L] | MIC [9] [mg/L] | MIC [10] [mg/L] | MIC [11] [mg/L] | MIC [12] [mg/L] | MIC [13] [mg/L] | MIC [14] [mg/L]
CC[C@H]1OC(=O)[C@H](C)[C@@H](O[C@H]2C[C@@](C)(OC)[C@@H](OC(=O)CCOCCOCCNc3cc4c(=O)c(C(=O)O)cn(CC)c4cc3Cl)[C@H](C)O2)[C@H](C)[C@@H](O[C@@H]2O[C@H](C)C[C@H](N(C)C)[C@H]2O)[C@](C)(O)C[C@@H](C)CN(C)[C@H](C)[C@@H](O)[C@]1(C)O | ≤ 0.125 | ≤ 0.125 | ≤ 0.125 | ≤ 0.125 | ≤ 0.125 | ≤ 0.125 | ≤ 0.125 | ≤ 0.125 | ≤ 0.125 | 16 (≈ 13.8 µM) | ≤ 0.125 | 0.25 (≈ 0.216 µM) | 1 (≈ 0.864 µM) | 0.5 (≈ 0.432 µM)
CCCn1cc(C(=O)O)c(=O)c2cc(NCCOCCOCCC(=O)O[C@H]3[C@H](C)O[C@@H](O[C@H]4[C@H](C)[C@@H](O[C@@H]5O[C@H](C)C[C@H](N(C)C)[C@H]5O)[C@](C)(O)C[C@@H](C)CN(C)[C@H](C)[C@@H](O)[C@](C)(O)[C@@H](CC)OC(=O)[C@@H]4C)C[C@@]3(C)OC)c(Cl)cc21 | 0.25 (≈ 0.213 µM) | ≤ 0.125 | ≤ 0.125 | 0.25 (≈ 0.213 µM) | ≤ 0.125 | ≤ 0.125 | 32 (≈ 27.3 µM) | 1 (≈ 0.853 µM) | ≤ 0.125 | > 64 | ≤ 0.125 | 1 (≈ 0.853 µM) | 4 (≈ 3.41 µM) | 0.5 (≈ 0.427 µM)
CC[C@H]1OC(=O)[C@H](C)[C@@H](O[C@H]2C[C@@](C)(OC)[C@@H](OC(=O)CCOCCOCCNc3cc4c(=O)c(C(=O)O)cn(C(C)C)c4cc3Cl)[C@H](C)O2)[C@H](C)[C@@H](O[C@@H]2O[C@H](C)C[C@H](N(C)C)[C@H]2O)[C@](C)(O)C[C@@H](C)CN(C)[C@H](C)[C@@H](O)[C@]1(C)O | ≤ 0.125 | ≤ 0.125 | ≤ 0.125 | ≤ 0.125 | ≤ 0.125 | ≤ 0.125 | 0.25 (≈ 0.213 µM) | 0.25 (≈ 0.213 µM) | ≤ 0.125 | 64 (≈ 54.6 µM) | ≤ 0.125 | 1 (≈ 0.853 µM) | 1 (≈ 0.853 µM) | 1 (≈ 0.853 µM)
CC[C@H]1OC(=O)[C@H](C)[C@@H](O[C@H]2C[C@@](C)(OC)[C@@H](OC(=O)CCOCCNc3ccc4c(c3)c(=O)c(C(=O)O)cn4C3CC3)[C@H](C)O2)[C@H](C)[C@@H](O[C@@H]2O[C@H](C)C[C@H](N(C)C)[C@H]2O)[C@](C)(O)C[C@@H](C)CN(C)[C@H](C)[C@@H](O)[C@]1(C)O | 0.5 (≈ 0.458 µM) | ≤ 0.125 | ≤ 0.125 | 1 (≈ 0.916 µM) | ≤ 0.125 | ≤ 0.125 | 0.5 (≈ 0.458 µM) | 0.25 (≈ 0.229 µM) | ≤ 0.125 | 32 (≈ 29.3 µM) | ≤ 0.125 | ≤ 0.125 | 1 (≈ 0.916 µM) | 0.5 (≈ 0.458 µM)
CC[C@H]1OC(=O)[C@H](C)[C@@H](O[C@H]2C[C@@](C)(OC)[C@@H](OC(=O)CCOCCOc3ccc4c(c3)c(=O)c(C(=O)O)cn4C3CC3)[C@H](C)O2)[C@H](C)[C@@H](O[C@@H]2O[C@H](C)C[C@H](N(C)C)[C@H]2O)[C@](C)(O)C[C@@H](C)CN(C)[C@H](C)[C@@H](O)[C@]1(C)O | ≤ 0.125 | ≤ 0.125 | ≤ 0.125 | 0.25 (≈ 0.229 µM) | ≤ 0.125 | ≤ 0.125 | 1 (≈ 0.915 µM) | ≤ 0.125 | ≤ 0.125 | 32 (≈ 29.3 µM) | ≤ 0.125 | 0.25 (≈ 0.229 µM) | 0.5 (≈ 0.458 µM) | 0.5 (≈ 0.458 µM)
CC[C@H]1OC(=O)[C@H](C)[C@@H](O[C@H]2C[C@@](C)(OC)[C@@H](OC(=O)CCOCCOCCNc3ccc4c(c3)c(=O)c(C(=O)O)cn4CC)[C@H](C)O2)[C@H](C)[C@@H](O[C@@H]2O[C@H](C)C[C@H](N(C)C)[C@H]2O)[C@](C)(O)C[C@@H](C)CN(C)[C@H](C)[C@@H](O)[C@]1(C)O | 0.25 (≈ 0.223 µM) | ≤ 0.125 | ≤ 0.125 | ≤ 0.125 | ≤ 0.125 | ≤ 0.125 | 0.25 (≈ 0.223 µM) | 1 (≈ 0.89 µM) | ≤ 0.125 | 64 (≈ 57 µM) | ≤ 0.125 | ≤ 0.125 | 2 (≈ 1.78 µM) | 2 (≈ 1.78 µM)
CC[C@H]1OC(=O)[C@H](C)[C@@H](O[C@H]2C[C@@](C)(OC)[C@@H](OC(=O)CCOCCOCCNc3ccc4c(c3)c(=O)c(C(=O)O)cn4C3CC3)[C@H](C)O2)[C@H](C)[C@@H](O[C@@H]2O[C@H](C)C[C@H](N(C)C)[C@H]2O)[C@](C)(O)C[C@@H](C)CN(C)[C@H](C)[C@@H](O)[C@]1(C)O | ≤ 0.125 | ≤ 0.125 | ≤ 0.125 | ≤ 0.125 | ≤ 0.125 | ≤ 0.125 | 0.5 (≈ 0.44 µM) | ≤ 0.125 | ≤ 0.125 | 16 (≈ 14.1 µM) | ≤ 0.125 | ≤ 0.125 | 0.5 (≈ 0.44 µM) | 0.25 (≈ 0.22 µM)
CCCOC(=O)c1cn(C2CC2)c2cc(Cl)c(NCCOCCC(=O)O[C@H]3[C@H](C)O[C@@H](O[C@H]4[C@H](C)[C@@H](O[C@@H]5O[C@H](C)C[C@H](N(C)C)[C@H]5O)[C@](C)(O)C[C@@H](C)CN(C)[C@H](C)[C@@H](O)[C@](C)(O)[C@@H](CC)OC(=O)[C@@H]4C)C[C@@]3(C)OC)cc2c1=O | 1 (≈ 0.856 µM) | ≤ 0.125 | ≤ 0.125 | 1 (≈ 0.856 µM) | ≤ 0.125 | ≤ 0.125 | 1 (≈ 0.856 µM) | ≤ 0.125 | ≤ 0.125 | > 64 | ≤ 0.125 | ≤ 0.125 | 4 (≈ 3.43 µM) | 2 (≈ 1.71 µM)
CC[C@H]1OC(=O)[C@H](C)[C@@H](O[C@H]2C[C@@](C)(OC)[C@@H](OC(=O)CCOCCNc3cc4c(=O)c(C(=O)OCOCCOC)cn(C5CC5)c4cc3Cl)[C@H](C)O2)[C@H](C)[C@@H](O[C@@H]2O[C@H](C)C[C@H](N(C)C)[C@H]2O)[C@](C)(O)C[C@@H](C)CN(C)[C@H](C)[C@@H](O)[C@]1(C)O | 1 (≈ 0.824 µM) | ≤ 0.125 | ≤ 0.125 | 2 (≈ 1.65 µM) | ≤ 0.125 | ≤ 0.125 | 2 (≈ 1.65 µM) | ≤ 0.125 | ≤ 0.125 | > 64 | 0.25 (≈ 0.206 µM) | ≤ 0.125 | 8 (≈ 6.59 µM) | 8 (≈ 6.59 µM)
CC[C@H]1OC(=O)[C@H](C)[C@@H](O[C@H]2C[C@@](C)(OC)[C@@H](OC(=O)CCOCCNc3cc4c(=O)c(C(=O)OCOC(=O)C(C)(C)C)cn(C5CC5)c4cc3Cl)[C@H](C)O2)[C@H](C)[C@@H](O[C@@H]2O[C@H](C)C[C@H](N(C)C)[C@H]2O)[C@](C)(O)C[C@@H](C)CN(C)[C@H](C)[C@@H](O)[C@]1(C)O | 1 (≈ 0.806 µM) | ≤ 0.125 | ≤ 0.125 | 2 (≈ 1.61 µM) | ≤ 0.125 | ≤ 0.125 | 4 (≈ 3.23 µM) | ≤ 0.125 | ≤ 0.125 | > 64 | 0.5 (≈ 0.403 µM) | ≤ 0.125 | 1 (≈ 0.806 µM) | 2 (≈ 1.61 µM)
